Blank lines part the entries; values can stand above or below the compound they belong to.
Assays:
[1] = biological target: Protein-tyrosine kinase 6 (Homo sapiens, UniProt Q13882); test: Selectivity interaction (KinaseProfiler screening (Millipore)) EUB0000601a PTK6; details: at 3 µM
[2] = biological target: Cyclin-dependent kinase 17 (Homo sapiens) (UniProt Q00537); details: at 10 µM
[3] = biological target: T1, Serine/threonine-protein kinase MAK (Homo sapiens) (UniProt P20794); test: Selectivity interaction (KinomeScan (DiscoverX)) EUB0000618a MAK; details: at 10 µM
T1 sequence (whole entry): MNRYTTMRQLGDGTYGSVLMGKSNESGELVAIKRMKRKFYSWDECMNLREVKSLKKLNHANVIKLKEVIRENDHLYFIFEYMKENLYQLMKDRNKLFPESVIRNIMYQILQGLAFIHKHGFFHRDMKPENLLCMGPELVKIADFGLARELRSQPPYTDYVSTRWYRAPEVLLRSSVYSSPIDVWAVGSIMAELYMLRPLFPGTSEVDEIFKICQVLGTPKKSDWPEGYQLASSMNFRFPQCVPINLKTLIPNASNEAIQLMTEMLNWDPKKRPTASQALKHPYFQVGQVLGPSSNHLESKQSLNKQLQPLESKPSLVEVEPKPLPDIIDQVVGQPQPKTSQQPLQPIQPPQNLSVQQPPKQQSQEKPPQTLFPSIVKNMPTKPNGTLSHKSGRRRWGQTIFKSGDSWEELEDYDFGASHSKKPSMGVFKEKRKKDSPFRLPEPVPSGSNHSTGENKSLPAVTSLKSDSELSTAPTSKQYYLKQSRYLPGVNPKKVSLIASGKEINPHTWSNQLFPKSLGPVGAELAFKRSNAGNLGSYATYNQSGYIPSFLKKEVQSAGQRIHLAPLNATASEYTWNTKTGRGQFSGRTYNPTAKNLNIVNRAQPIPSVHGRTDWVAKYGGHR

[4] = biological target: T2, Serine/threonine-protein kinase LATS1 (Homo sapiens) (UniProt O95835); test: Selectivity interaction (KinomeScan (DiscoverX)) EUB0000607a LATS1; details: at 10 µM
T2 sequence (whole entry): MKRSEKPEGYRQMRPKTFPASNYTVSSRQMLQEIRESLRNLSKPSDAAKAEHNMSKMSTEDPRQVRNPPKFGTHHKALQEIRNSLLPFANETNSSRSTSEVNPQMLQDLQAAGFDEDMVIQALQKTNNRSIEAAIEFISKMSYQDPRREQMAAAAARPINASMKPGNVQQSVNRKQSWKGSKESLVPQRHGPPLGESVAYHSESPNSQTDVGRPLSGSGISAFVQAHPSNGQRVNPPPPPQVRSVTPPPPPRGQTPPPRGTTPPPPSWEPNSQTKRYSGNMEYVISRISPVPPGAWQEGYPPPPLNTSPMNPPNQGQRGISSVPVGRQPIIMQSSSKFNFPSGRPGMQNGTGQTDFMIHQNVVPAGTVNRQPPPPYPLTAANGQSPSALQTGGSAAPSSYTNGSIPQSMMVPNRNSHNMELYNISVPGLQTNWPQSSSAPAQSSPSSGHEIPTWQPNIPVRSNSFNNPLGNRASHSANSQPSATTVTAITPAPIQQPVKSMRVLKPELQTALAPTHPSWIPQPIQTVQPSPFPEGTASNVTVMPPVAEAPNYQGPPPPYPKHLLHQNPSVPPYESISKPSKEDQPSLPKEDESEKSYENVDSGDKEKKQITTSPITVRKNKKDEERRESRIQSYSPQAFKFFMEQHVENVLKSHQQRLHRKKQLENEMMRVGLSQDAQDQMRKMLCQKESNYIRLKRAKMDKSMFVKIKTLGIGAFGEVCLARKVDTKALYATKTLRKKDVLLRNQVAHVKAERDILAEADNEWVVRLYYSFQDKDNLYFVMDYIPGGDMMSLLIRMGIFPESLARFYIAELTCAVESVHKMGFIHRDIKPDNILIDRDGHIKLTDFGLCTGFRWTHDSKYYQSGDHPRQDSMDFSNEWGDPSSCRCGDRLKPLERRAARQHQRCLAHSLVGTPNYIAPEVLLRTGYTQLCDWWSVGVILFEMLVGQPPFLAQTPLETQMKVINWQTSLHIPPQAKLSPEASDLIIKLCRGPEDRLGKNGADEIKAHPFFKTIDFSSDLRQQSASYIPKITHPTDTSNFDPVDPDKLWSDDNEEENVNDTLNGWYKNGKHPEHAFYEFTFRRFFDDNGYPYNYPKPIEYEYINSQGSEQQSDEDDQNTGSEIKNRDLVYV

[5] = biological target: Serine/threonine-protein kinase WNK3 (Homo sapiens) (UniProt Q9BYP7); test: Selectivity interaction (ActivX KiNativ screen (ex vivo kinase selectivity in human PBMCs)) EUB0001619a WNK3; format: cell-based; details: PBMC, at 1 µM
Sequence of Serine/threonine-protein kinase WNK3 (Homo sapiens) (Q9BYP7 whole entry): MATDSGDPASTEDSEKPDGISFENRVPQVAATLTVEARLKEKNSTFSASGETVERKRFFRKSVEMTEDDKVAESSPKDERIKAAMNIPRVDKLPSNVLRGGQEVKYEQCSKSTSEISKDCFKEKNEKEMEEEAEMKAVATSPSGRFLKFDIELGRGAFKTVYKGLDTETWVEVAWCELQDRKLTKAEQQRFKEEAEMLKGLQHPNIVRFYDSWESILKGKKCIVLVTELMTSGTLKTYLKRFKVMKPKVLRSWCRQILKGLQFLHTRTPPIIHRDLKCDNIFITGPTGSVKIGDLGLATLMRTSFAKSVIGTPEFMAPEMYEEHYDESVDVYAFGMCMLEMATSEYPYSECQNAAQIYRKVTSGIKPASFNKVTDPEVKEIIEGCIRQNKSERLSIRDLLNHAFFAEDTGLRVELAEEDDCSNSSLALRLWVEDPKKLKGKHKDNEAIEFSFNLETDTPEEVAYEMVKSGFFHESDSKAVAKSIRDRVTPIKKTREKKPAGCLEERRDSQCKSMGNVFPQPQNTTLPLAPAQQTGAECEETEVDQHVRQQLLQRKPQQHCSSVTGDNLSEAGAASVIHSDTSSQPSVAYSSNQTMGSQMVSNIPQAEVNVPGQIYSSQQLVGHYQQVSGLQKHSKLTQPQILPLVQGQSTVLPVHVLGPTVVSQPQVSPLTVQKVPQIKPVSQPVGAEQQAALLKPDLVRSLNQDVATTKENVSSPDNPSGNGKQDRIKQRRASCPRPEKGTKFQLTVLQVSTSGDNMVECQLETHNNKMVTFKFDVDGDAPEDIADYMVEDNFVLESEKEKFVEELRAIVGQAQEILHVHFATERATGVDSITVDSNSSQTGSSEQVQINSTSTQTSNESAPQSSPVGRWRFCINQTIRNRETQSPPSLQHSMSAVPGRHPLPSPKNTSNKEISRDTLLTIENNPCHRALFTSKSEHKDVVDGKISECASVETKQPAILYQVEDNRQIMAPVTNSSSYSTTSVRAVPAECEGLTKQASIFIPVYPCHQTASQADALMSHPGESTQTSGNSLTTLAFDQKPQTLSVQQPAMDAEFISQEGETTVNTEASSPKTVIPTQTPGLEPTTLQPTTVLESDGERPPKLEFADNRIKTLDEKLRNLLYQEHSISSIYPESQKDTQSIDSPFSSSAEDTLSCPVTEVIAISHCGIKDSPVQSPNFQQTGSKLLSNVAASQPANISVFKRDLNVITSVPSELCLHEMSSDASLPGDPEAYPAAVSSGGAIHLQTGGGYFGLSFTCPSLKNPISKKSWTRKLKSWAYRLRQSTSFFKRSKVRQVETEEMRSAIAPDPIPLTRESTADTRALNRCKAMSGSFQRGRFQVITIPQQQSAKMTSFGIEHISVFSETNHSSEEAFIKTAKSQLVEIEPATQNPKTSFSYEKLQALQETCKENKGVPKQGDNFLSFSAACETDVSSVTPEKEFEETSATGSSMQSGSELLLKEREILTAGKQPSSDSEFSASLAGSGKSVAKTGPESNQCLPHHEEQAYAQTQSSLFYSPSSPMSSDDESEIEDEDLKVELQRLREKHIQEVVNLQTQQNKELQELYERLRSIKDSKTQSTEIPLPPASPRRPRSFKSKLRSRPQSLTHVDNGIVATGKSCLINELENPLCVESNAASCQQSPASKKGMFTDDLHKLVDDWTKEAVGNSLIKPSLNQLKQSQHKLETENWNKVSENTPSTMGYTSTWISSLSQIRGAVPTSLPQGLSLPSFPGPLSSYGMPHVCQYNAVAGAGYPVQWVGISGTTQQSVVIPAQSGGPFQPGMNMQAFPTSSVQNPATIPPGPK

[6] = biological target: Calcium/calmodulin-dependent protein kinase type 1D (Homo sapiens) (UniProt Q8IU85); test: Selectivity interaction (KinomeScan (DiscoverX)) EUB0001619a CAMK1D; details: at 1 µM
Sequence of Calcium/calmodulin-dependent protein kinase type 1D (Homo sapiens) (Q8IU85 whole entry, looked up): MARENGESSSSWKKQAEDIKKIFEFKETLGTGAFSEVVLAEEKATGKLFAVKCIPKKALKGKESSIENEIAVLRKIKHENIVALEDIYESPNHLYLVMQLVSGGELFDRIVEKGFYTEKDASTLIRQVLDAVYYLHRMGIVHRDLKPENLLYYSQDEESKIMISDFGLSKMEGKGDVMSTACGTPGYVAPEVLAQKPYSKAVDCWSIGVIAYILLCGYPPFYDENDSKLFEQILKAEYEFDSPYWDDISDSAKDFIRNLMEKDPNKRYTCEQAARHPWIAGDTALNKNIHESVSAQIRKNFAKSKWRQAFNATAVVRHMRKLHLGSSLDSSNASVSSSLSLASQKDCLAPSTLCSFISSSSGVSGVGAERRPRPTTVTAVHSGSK

[7] = biological target: T3, Serine/threonine-protein kinase TNNI3K (Homo sapiens) (UniProt Q59H18); test: Selectivity interaction (KinomeScan (DiscoverX)) EUB0000229b TNNI3K; details: at 10 µM
T3 sequence (whole entry): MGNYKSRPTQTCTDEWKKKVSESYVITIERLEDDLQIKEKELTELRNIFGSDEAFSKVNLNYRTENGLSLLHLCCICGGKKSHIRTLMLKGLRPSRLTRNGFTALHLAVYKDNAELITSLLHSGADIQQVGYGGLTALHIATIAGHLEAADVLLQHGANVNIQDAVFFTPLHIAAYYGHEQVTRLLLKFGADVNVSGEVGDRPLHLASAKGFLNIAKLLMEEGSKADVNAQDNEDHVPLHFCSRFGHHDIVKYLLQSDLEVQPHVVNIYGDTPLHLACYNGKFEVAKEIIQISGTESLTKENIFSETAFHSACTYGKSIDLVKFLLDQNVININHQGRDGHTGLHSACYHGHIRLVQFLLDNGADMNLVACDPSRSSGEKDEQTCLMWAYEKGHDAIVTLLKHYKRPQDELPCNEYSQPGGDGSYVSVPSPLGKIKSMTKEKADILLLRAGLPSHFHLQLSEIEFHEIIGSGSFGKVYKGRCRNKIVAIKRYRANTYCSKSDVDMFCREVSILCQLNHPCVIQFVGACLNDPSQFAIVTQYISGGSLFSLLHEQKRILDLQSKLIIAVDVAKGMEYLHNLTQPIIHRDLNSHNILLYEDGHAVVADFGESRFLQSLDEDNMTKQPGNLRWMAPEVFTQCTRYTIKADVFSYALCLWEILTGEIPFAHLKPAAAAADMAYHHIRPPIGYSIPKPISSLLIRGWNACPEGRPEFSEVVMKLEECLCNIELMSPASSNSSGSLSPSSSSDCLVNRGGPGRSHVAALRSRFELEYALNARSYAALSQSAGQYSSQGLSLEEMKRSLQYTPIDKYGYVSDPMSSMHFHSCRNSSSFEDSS

[8] = biological target: Ribosomal protein S6 kinase alpha-6 (Homo sapiens, UniProt Q9UK32); test: Selectivity interaction (Kinase panel (Eurofins, enzymatic assay)) EUB0000311b RPS6KA6
Sequence of Ribosomal protein S6 kinase alpha-6 (Q9UK32 whole entry): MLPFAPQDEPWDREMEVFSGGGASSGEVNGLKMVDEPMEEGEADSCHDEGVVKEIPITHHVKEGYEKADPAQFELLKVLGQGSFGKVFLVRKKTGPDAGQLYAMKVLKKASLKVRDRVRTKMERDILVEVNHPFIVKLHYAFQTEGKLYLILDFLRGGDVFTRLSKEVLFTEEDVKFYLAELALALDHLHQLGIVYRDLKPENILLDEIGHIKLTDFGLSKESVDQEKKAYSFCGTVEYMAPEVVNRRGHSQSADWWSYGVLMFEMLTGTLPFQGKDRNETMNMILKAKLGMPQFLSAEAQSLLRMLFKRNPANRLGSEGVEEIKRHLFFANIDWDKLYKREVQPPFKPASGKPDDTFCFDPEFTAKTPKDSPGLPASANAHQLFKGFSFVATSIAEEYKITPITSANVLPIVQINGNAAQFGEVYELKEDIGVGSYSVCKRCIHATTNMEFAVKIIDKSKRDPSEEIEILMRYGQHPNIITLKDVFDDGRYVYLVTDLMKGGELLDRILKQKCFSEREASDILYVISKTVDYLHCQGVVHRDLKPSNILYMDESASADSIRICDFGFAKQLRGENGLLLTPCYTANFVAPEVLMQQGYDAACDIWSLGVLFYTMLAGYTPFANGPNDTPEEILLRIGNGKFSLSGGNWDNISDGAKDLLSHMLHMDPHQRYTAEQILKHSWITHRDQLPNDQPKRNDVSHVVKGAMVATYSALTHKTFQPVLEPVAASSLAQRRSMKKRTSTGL

Sequence of Protein-tyrosine kinase 6 (Q13882 whole entry, looked up): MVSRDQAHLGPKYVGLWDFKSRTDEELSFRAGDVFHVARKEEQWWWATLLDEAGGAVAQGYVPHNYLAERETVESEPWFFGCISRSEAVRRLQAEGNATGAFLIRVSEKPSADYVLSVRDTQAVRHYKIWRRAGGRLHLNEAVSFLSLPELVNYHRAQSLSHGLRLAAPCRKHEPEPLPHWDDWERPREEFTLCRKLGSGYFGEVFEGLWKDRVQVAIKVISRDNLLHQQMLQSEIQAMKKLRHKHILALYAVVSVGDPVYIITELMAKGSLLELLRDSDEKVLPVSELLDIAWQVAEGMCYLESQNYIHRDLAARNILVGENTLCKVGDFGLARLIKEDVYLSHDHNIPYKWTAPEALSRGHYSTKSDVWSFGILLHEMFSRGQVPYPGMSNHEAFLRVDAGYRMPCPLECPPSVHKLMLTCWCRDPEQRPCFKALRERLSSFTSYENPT
Sequence of Cyclin-dependent kinase 17 (Homo sapiens) (Q00537 whole entry, looked up): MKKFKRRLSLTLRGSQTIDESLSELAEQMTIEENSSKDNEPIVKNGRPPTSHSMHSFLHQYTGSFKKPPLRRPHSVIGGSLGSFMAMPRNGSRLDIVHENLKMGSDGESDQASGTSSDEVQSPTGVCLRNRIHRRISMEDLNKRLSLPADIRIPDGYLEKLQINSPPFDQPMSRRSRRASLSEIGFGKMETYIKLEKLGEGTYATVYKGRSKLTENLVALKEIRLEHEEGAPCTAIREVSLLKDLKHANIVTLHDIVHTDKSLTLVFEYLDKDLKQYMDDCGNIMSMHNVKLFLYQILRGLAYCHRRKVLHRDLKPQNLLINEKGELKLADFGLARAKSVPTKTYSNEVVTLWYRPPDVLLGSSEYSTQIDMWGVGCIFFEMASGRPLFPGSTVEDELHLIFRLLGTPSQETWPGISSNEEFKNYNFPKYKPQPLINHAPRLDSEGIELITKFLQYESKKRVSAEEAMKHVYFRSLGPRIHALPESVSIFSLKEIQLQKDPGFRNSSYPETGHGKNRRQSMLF

% of inhibition [1]: 38%
Structure (SMILES): CCc1cc(Nc2nccc(-c3c(-c4ccc(OC)c(C(=O)Nc5c(F)cccc5F)c4)nc4ccccn34)n2)c(OC)cc1N1CCC(N2CCN(S(C)(=O)=O)CC2)CC1

% of control [2]: 100%
Structure (SMILES): CCN(CC)CCCCNc1ncc2cc(-c3cc(OC)cc(OC)c3)c(NC(=O)NC(C)(C)C)nc2n1

Structure (SMILES): O[C@H]1CC[C@H](Nc2ncc3nc(Nc4c(F)cc(F)cc4F)n([C@H]4CCOC4)c3n2)CC1
% of control [3]: 97%

Structure (SMILES): CNC(=O)Nc1ccc(-c2nc(N3CC4CCC(C3)O4)c3cnn(C4CCC5(CC4)OCCO5)c3n2)cc1
% of control [4]: 95%

Structure (SMILES): N#Cc1cccc(-c2c[nH]c3ncnc(N4CCOCC4)c23)c1
% of inhibition [5]: -6%
% of control [6]: 88%

Structure (SMILES): COc1cc(N(C)c2ccnc3ccc(C(F)(F)F)cc23)cc(OC)c1OC
% binding [7]: 90%

IC50 [8]: 0.036 µM
Structure (SMILES): CCc1ccccc1C(=O)Nc1n[nH]c2c(C)c(F)c(C3C(C#N)=C(C)N(C)C(C)=C3C#N)cc12 [BAY-3827]
